Drawing on patent US20060293315A1, “Intermediates of novel heterocyclic compounds having antibacterial activity and process for their preparation” (Dr. Reddy's Laboratories Ltd., priority 2001, published 2006), this text covers melting point for 71 molecules.

In general, melting point refers to the temperature, or range, at which the solid turns liquid. `NC[C@H]1CN(c2ccc(N3CCOC3=O)c(F)c2)C(=O)O1` [Example 53]: the melting point was found to be 147 °C.

As to `NC[C@H]1CN(c2ccc(N3CCOC3=O)cc2)C(=O)O1` [Example 59], the melting point fell in the range of 189 to 191 °C.

`CCC(=O)NC[C@H]1CN(c2ccc(N3CCOC3=O)c(F)c2)C(=O)O1` [Example 67] yielded a melting point of 203 °C.

As to `CCCC(=O)NC[C@H]1CN(c2ccc(N3CCOC3=O)c(F)c2)C(=O)O1` [Example 68], the melting point is 211 °C.

For the molecule `CCCCC(=O)NC[C@H]1CN(c2ccc(N3CCOC3=O)c(F)c2)C(=O)O1` [Example 69], the melting point is 187 °C.

With `CCCCCCC(=O)NC[C@H]1CN(c2ccc(N3CCOC3=O)c(F)c2)C(=O)O1` [Example 70], the melting point was 131 °C.

Consider `C=CC(=O)NC[C@H]1CN(c2ccc(N3CCOC3=O)c(F)c2)C(=O)O1` [Example 71], for which the melting point was determined as 196 °C.

Turning to `O=C1O[C@@H](CNC(=O)C(F)(F)F)CN1c1ccc(N2CCOC2=O)c(F)c1` [Example 72], the melting point stood at 194 °C.

As to `CCOC(=O)C(=O)NC[C@H]1CN(c2ccc(N3CCOC3=O)c(F)c2)C(=O)O1` [Example 73], the melting point stood at 160 °C.

`CC(=O)NC[C@H]1CN(c2ccc(N3CCSC3=S)c(F)c2)C(=O)O1` [Example 76] yielded a melting point of 220 °C.

For the molecule `CC(=O)NC[C@H]1CN(c2ccc(N3CCN(C)C3=S)c(F)c2)C(=O)O1` [Example 77], the melting point stood at 171 °C.

As for `CC(=O)NC[C@H]1CN(c2ccc(-n3c(=O)oc4cc(C)ccc43)c(F)c2)C(=O)O1` [Example 79], the melting point came out at 213 °C.

For the molecule `CC(=O)NC[C@H]1CN(c2ccc(-n3c(=O)oc4ccc(C)cc43)c(F)c2)C(=O)O1` [Example 80], the melting point is 202 °C.

The molecule `CC(=O)NC[C@H]1CN(c2ccc(N3CCOC3=O)c(C(F)(F)F)c2)C(=O)O1` [Example 81] yielded a melting point of 143 °C.

Consider `CCC(=O)NC[C@H]1CN(c2ccc(N3CCOC3=O)c(C(F)(F)F)c2)C(=O)O1` [Example 82], for which the melting point was 143 °C.

Take `C=CC(=O)NC[C@H]1CN(c2ccc(N3CCOC3=O)c(C(F)(F)F)c2)C(=O)O1` [Example 84]: the melting point was 191 °C.

`CC(=O)NC[C@H]1CN(c2ccc(N3CCOC3=O)cc2F)C(=O)O1` [Example 85] returned a melting point of 120 °C.

In turn, `CC(=O)NC[C@H]1CN(c2cc(F)c(N3CCOC3=O)c(F)c2)C(=O)O1` [Example 86] returned a melting point of 219 °C.

`CCC(=O)NC[C@H]1CN(c2cc(F)c(N3CCOC3=O)c(F)c2)C(=O)O1` [Example 87]: the melting point was 224 °C.

On to `CC(=O)NC[C@H]1CN(c2ccc(N3CCOC3=O)cc2)C(=O)O1` [Example 88], for which the melting point is 231 °C.

With `CC(=O)NC[C@H]1CN(c2ccc(-n3c(=O)oc4ccccc43)cc2)C(=O)O1` [Example 89], the melting point worked out at 229 °C.

`CC(=O)NC[C@H]1CN(c2ccc(N3CC(=O)N(C)C3)c(F)c2)C(=O)O1` [Example 90] displayed a melting point of 230 °C.

Consider `CC(=O)NC[C@H]1CN(c2ccc(N3CCN(C)C3=O)c(F)c2)C(=O)O1` [Example 92], for which the melting point came to 182 °C.

The molecule `CC(=O)NC[C@H]1CN(c2ccc(N3CCN(C)C3=O)cc2)C(=O)O1` [Example 93] had a melting point of 217 °C.

In turn, `CC(=O)NC[C@H]1CN(c2ccc(N3CCN(Cc4ccccc4)C3=O)cc2)C(=O)O1` [Example 94] showed a melting point of 204 °C.

`CC(=O)NC[C@H]1CN(c2ccc(N3CCN(c4ccccc4)C3=O)c(F)c2)C(=O)O1` [Example 95] showed a melting point of 182 °C.

`CC(=O)NC[C@H]1CN(c2ccc(N3CCN(c4ccc(F)cc4)C3=O)c(F)c2)C(=O)O1` [Example 96] yielded a melting point of 194 °C.

The molecule `CC(=S)NC[C@H]1CN(c2ccc(N3CCOC3=O)c(F)c2)C(=O)O1` [Example 98] came in with a melting point of 171 °C.

In turn, `O=C1O[C@@H](CNC(=S)CC(F)(F)F)CN1c1ccc(N2CCOC2=O)c(F)c1` [Example 99] registered a melting point of 165 °C.

Take `CC(=S)NC[C@H]1CN(c2ccc(N3CCN(C)C3=S)c(F)c2)C(=O)O1` [Example 100]: the melting point amounted to 111 °C.

As for `CC(=S)NC[C@H]1CN(c2ccc(-n3c(=O)oc4ccccc43)c(F)c2)C(=O)O1` [Example 101], the melting point was 137 °C.

`CC(=S)NC[C@H]1CN(c2ccc(N3CCOC3=O)c(C(F)(F)F)c2)C(=O)O1` [Example 102] came in with a melting point of 154 °C.

Consider `CC(=S)NC[C@H]1CN(c2cc(F)c(N3CCOC3=O)c(F)c2)C(=O)O1` [Example 103], for which the melting point worked out at 108 °C.

For the molecule `CCC(=S)NC[C@H]1CN(c2cc(F)c(N3CCOC3=O)c(F)c2)C(=O)O1` [Example 104], the melting point is 168 °C.

In turn, `CC(=S)NC[C@H]1CN(c2ccc(N3CCOC3=O)cc2)C(=O)O1` [Example 105] had a melting point of 195 °C.

For `CC(=S)NC[C@H]1CN(c2ccc(N3CCN(c4ccccc4)C3=O)c(F)c2)C(=O)O1` [Example 106], the melting point came out at 165 °C.

The molecule `CC(=S)NC[C@H]1CN(c2cc(F)c(N3CNC(=O)C3)c(F)c2)C(=O)O1` [Example 108] returned a melting point of 148 to 150 °C.

The molecule `COC(=O)NC[C@H]1CN(c2ccc(N3CCOC3=O)c(F)c2)C(=O)O1` [Example 109] gave a melting point of 153 °C.

With `COC(=O)NC[C@H]1CN(c2ccc(N3CCOC3=O)c(C(F)(F)F)c2)C(=O)O1` [Example 110], the melting point was 148 °C.

In the case of `COC(=O)NC[C@H]1CN(c2cc(F)c(N3CCOC3=O)c(F)c2)C(=O)O1` [Example 111], the melting point is 157 °C.

`COC(=O)NC[C@H]1CN(c2ccc(N3CCOC3=O)cc2)C(=O)O1` [Example 112] showed a melting point of 195 °C.

The molecule `COC(=O)NC[C@H]1CN(c2ccc(N3CC(=O)N(C)C3)c(F)c2)C(=O)O1` [Example 113] displayed a melting point of 226 °C.

Molecule `CSC(=S)NC[C@H]1CN(c2ccc(N3CCOC3=O)cc2)C(=O)O1` [Example 114] registered a melting point of 161 °C.

`CSC(=S)NC[C@H]1CN(c2cc(F)c(N3CCOC3=O)c(F)c2)C(=O)O1` [Example 115] gave a melting point of 147 °C.

With `COC(=S)NC[C@H]1CN(c2ccc(N3CCOC3=O)c(F)c2)C(=O)O1` [Example 119], the melting point is 137 °C.

In turn, `CCOC(=S)NC[C@H]1CN(c2ccc(N3CCOC3=O)c(F)c2)C(=O)O1` [Example 120] came in with a melting point of 208 °C.

Take `O=C1O[C@@H](CNC(=S)OC(=O)C(F)(F)F)CN1c1ccc(N2CCOC2=O)c(F)c1` [Example 121]: the melting point was determined as 184 °C.

As to `O=C1OCCN1c1ccc(N2C[C@H](CNC(=S)OC3CCCCC3)OC2=O)cc1` [Example 122], the melting point amounted to 153 °C.

Molecule `COC(=S)NC[C@H]1CN(c2ccc(N3CCOC3=O)c(F)c2)C(=O)O1` [Example 123] yielded a melting point of 197 °C.

The molecule `CCOC(=S)NC[C@H]1CN(c2ccc(N3CCN(C)C3=S)c(F)c2)C(=O)O1` [Example 124] gave a melting point of 197 °C.

Molecule `CCCOC(=S)NC[C@H]1CN(c2ccc(N3CCN(C)C3=S)c(F)c2)C(=O)O1` [Example 125] came in with a melting point of over 200 °C.

As to `COC(=S)NC[C@H]1CN(c2ccc(N3CCN(C)C3=S)c(F)c2)C(=O)O1` [Example 126], the melting point was 179 °C.

The molecule `CC(C)OC(=S)NC[C@H]1CN(c2ccc(N3CCN(C)C3=S)c(F)c2)C(=O)O1` [Example 127] had a melting point of 183 °C.

In turn, `COC(=S)NC[C@H]1CN(c2ccc(N3CCOC3=O)c(C(F)(F)F)c2)C(=O)O1` [Example 128] gave a melting point of 146 °C.

In turn, `CCOC(=S)NC[C@H]1CN(c2ccc(N3CCOC3=O)c(C(F)(F)F)c2)C(=O)O1` [Example 129] yielded a melting point of 157 °C.

In turn, `COC(=S)NC[C@H]1CN(c2cc(F)c(N3CCOC3=O)c(F)c2)C(=O)O1` [Example 130] registered a melting point of 182 °C.

With `COC(=S)NC[C@H]1CN(c2ccc(N3CCOC3=O)cc2)C(=O)O1` [Example 131], the melting point amounted to 153 °C.

Take `CCOC(=S)NC[C@H]1CN(c2ccc(N3CCOC3=O)cc2)C(=O)O1` [Example 132]: the melting point is 168 °C.

`CCCOC(=S)NC[C@H]1CN(c2ccc(N3CCOC3=O)cc2)C(=O)O1` [Example 133] registered a melting point of 176 °C.

As for `O=C1OCCN1c1ccc(N2C[C@H](CNC(=S)OCC(F)(F)F)OC2=O)cc1` [Example 134], the melting point worked out at 181 °C.

`O=C1OCCN1c1ccc(N2C[C@H](CNC(=S)OCCO)OC2=O)cc1` [Example 135] gave a melting point of 141 °C.

In turn, `COCCOC(=S)NC[C@H]1CN(c2ccc(N3CCOC3=O)cc2)C(=O)O1` [Example 136] yielded a melting point of 149 °C.

As to `C=CCOC(=S)NC[C@H]1CN(c2ccc(N3CCOC3=O)cc2)C(=O)O1` [Example 137], the melting point amounted to 150 °C.

`CC(C)OC(=S)NC[C@H]1CN(c2ccc(N3CCOC3=O)cc2)C(=O)O1` [Example 138] returned a melting point of 140 °C.

Molecule `COC(=S)NC[C@H]1CN(c2ccc(-n3c(=O)oc4ccccc43)cc2)C(=O)O1` [Example 139] gave a melting point of 141 °C.

For the molecule `CCOC(=S)NC[C@H]1CN(c2ccc(-n3c(=O)oc4ccccc43)cc2)C(=O)O1` [Example 140], the melting point turned out to be 147 °C.

For `COC(=S)NC[C@H]1CN(c2ccc(N3CC(=O)N(C)C3)c(F)c2)C(=O)O1` [Example 141], the melting point came to 218 °C.

On to `COC(=S)NC[C@H]1CN(c2ccc(N3CCN(C)C3=O)cc2)C(=O)O1` [Example 142], for which the melting point was 209 °C.

Molecule `COC(=S)NC[C@H]1CN(c2ccc(N3CC(=O)N(C)C3)cc2)C(=O)O1` [Example 143] displayed a melting point of 205 °C.

Turning to `COC(=S)NC[C@H]1CN(c2ccc(N3CCN(C)C3=O)c(F)c2)C(=O)O1` [Example 144], the melting point was 146 °C.

For `COC(=S)NC[C@H]1CN(c2ccc(N3CCN(Cc4ccccc4)C3=O)cc2)C(=O)O1` [Example 145], the melting point was found to be 170 °C.
